This assay concerns MRSA USA300. The assay is classed as cell-based, Staphylococcus aureus. Conditions: vs S. aureus RN4220.

As for `CC1(C)S[C@@H]2[C@H](NC(=O)[C@H](N)c3ccccc3)C(=O)N2[C@H]1C(=O)O` [ampicillin], the “MIC increase in MRSA USA300 relative to the methicillin-susceptible strain” value was “at least 16 fold”.

The record behind these values is paper PMC10866013 (Nature, 2023).
